The structures appear in SMILES notation. Counter-ions that a name gives are not always drawn.

In the test the target is T1, human CGT (ceramide galactosyltransferase), CHO/CGT lysate (Homo sapiens, UniProt Q16880).
T1 construct: Full-length human CGT cDNA was cloned into the BamH1/Xho1 site of pcDNA3.1 (+); expressed in transfected cells; host or cells: Chinese hamster ovary (CHO) cells; lysate prepared with M-PER
T1 sequence (Q16880 21-541): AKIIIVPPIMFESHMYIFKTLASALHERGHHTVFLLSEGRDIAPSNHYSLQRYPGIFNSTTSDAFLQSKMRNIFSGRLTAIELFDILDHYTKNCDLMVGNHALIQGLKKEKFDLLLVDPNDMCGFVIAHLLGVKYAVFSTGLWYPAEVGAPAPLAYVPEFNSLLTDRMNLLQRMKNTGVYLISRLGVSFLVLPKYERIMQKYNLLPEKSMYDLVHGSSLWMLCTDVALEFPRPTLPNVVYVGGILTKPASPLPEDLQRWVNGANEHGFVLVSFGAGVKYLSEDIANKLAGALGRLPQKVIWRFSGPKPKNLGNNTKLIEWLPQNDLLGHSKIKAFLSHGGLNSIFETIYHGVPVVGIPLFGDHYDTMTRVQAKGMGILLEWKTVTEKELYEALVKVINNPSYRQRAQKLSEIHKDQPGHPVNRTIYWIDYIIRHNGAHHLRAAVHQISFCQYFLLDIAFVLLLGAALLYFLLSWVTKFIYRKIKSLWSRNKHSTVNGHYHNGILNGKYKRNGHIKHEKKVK
In words: CGT enzyme assay, RapidFire/MS/MS readout with 0.01% Tween added (Table 1 ranges with two asterisks **). It is filed as biochemical. As to conditions: CGT enzymatic assay; range with two asterisks (**): RapidFire/MS/MS method with 0.01% Tween added. The essentials: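 Lysate (4 μg) of CHO cells transfected with full-length human CGT incubated 1 h at 37 °C with compound (0.001–50 μM) in pH 7.2 HEPES buffer with 10 μM C6-NBD-dihydro-ceramide, 17.5 μM UDP-galactose, Mg2+/Mn2+, CHAPS, BSA, 0.5% DMSO; ** set also contained 0.01% Tween 80. Product quantified by RapidFire/MS/MS, normalized to internal standard; IC50 from sigmoidal variable-slope fits.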
Usually IC50 stands for the concentration at which inhibition is half-maximal. High values mean a need for much substance, low ones inhibition by little substance. `CCCOc1cc(C(F)(F)[C@H](NS(=O)(=O)c2ccc3cc(OC4CCCC4)ccc3c2)C(=O)N2CCC(N)CC2)ccc1Cl` [Compound 169-1, (R)—N-(3-(4-aminopiperidin-1-yl)-1-(4-chloro-3-propoxyphenyl)-1,1-difluoro-3-oxopropan-2-yl)-6-(cyclopentyloxy)naphthalene-2-sulfonamide trifluoroacetate] gave an IC50 of under 1 µM.

Compound `CCCOc1cc(C(F)(F)[C@@H](NS(=O)(=O)c2ccc3cc(OC4CCCC4)ccc3c2)C(=O)N2CCC(N)CC2)ccc1Cl` [Compound 169-2, (S)—N-(3-(4-aminopiperidin-1-yl)-1-(4-chloro-3-propoxyphenyl)-1,1-difluoro-3-oxopropan-2-yl)-6-(cyclopentyloxy) naphthalene-2-sulfonamide trifluoroacetate] gave an IC50 of 1 to 10 µM. The figure for `NC1CCN(C(=O)[C@@H](NS(=O)(=O)c2ccc3cc(OC4CCCC4)ccc3c2)C(F)(F)c2ccc(Cl)c(OC3CCCC3)c2)CC1` [Compound 170-1, (R)—N-(3-(4-aminopiperidin-1-yl)-1-(4-chloro-3-(cyclopentyloxy)phenyl)-1,1-difluoro-3-oxopropan-2-yl)-6-(cyclopentyloxy)naphthalene-2-sulfonamide trifluoroacetate] is 1 to 10 µM; for `NC1CCN(C(=O)[C@H](NS(=O)(=O)c2ccc3cc(OC4CCCC4)ccc3c2)C(F)(F)c2ccc(Cl)c(OC3CCCC3)c2)CC1` [Compound 170-2, (S)—N-(3-(4-aminopiperidin-1-yl)-1-(4-chloro-3-(cyclopentyloxy)phenyl)-1,1-difluoro-3-oxopropan-2-yl)-6-(cyclopentyloxy) naphthalene-2-sulfonamide trifluoroacetate] it is 10 to 30 µM. For `N[C@H]1CCN(C(=O)[C@@H](NS(=O)(=O)c2ccc(OCC3CCCCC3)cc2)C(F)(F)c2ccc(-c3ccc(Cl)cc3)cc2)C1` [Compound 171-1, N—((R)-3-((S)-3-aminopyrrolidin-1-yl)-1-(4′-chloro-[1,1′-biphenyl]-4-yl)-1,1-difluoro-3-oxopropan-2-yl)-4-(cyclohexylmethoxy)benzenesulfonamide trifluoroacetate], the IC50 lay within 1 to 10 µM. As for `N[C@H]1CCN(C(=O)[C@H](NS(=O)(=O)c2ccc(OCC3CCCCC3)cc2)C(F)(F)c2ccc(-c3ccc(Cl)cc3)cc2)C1` [Compound 171-2, N—((S)-3-((S)-3-aminopyrrolidin-1-yl)-1-(4′-chloro-[1,1′-biphenyl]-4-yl)-1,1-difluoro-3-oxopropan-2-yl)-4-(cyclohexylmethoxy) benzenesulfonamide trifluoroacetate], the figure is 30 to 100 µM; as for `CC(C)Oc1cc(C(F)(F)[C@H](NS(=O)(=O)c2ccc3cc(OC4CCCC4)ccc3c2)C(=O)N2CCC(N)CC2)ccc1Cl` [Compound 172-1, (R)—N-(3-(4-aminopiperidin-1-yl)-1-(4-chloro-3-isopropoxyphenyl)-1,1-difluoro-3-oxopropan-2-yl)-6-(cyclopentyloxy)naphthalene-2-sulfonamide trifluoroacetate], 1 to 10 µM; as for `CC(C)Oc1cc(C(F)(F)[C@@H](NS(=O)(=O)c2ccc3cc(OC4CCCC4)ccc3c2)C(=O)N2CCC(N)CC2)ccc1Cl` [Compound 172-2, (S)—N-(3-(4-aminopiperidin-1-yl)-1-(4-chloro-3-isopropoxyphenyl)-1,1-difluoro-3-oxopropan-2-yl)-6-(cyclopentyloxy) naphthalene-2-sulfonamide trifluoroacetate], 10 to 30 µM. As for `NC(=O)C1CCN(C(=O)[C@@H](NS(=O)(=O)c2ccc3cc(OC4CCCC4)ccc3c2)C(F)(F)c2ccc(-c3ccc(Cl)cc3)cc2)CC1` [Compound 173-1, (R)-1-(3-(4′-chloro-[1,1′-biphenyl]-4-yl)-2-((6-(cyclopentyloxy)naphthalene)-2-sulfonamido)-3,3-difluoropropanoyl)piperidine-4-carboxamide], the figure is 1 to 10 µM.

In turn, `NC(=O)C1CCN(C(=O)[C@H](NS(=O)(=O)c2ccc3cc(OC4CCCC4)ccc3c2)C(F)(F)c2ccc(-c3ccc(Cl)cc3)cc2)CC1` [Compound 173-2, (S)-1-(3-(4′-chloro-[1,1′-biphenyl]-4-yl)-2-((6-(cyclopentyloxy)naphthalene)-2-sulfonamido)-3,3-difluoropropanoyl)piperidine-4-carboxamide] returned an IC50 of 30 to 100 µM. As for `NC(=NO)C1CCN(C(=O)[C@@H](NS(=O)(=O)c2ccc3cc(OC4CCCC4)ccc3c2)C(F)(F)c2ccc(-c3ccc(Cl)cc3)cc2)CC1` [Compound 174-1, (R)-1-(3-(4′-chloro-[1,1′-biphenyl]-4-yl)-2-((6-(cyclopentyloxy)naphthalene)-2-sulfonamido)-3,3-difluoropropanoyl)-N′-hydroxypiperidine-4-carboximidamide], the figure is 1 to 10 µM.

Consider `NC(=NO)C1CCN(C(=O)[C@H](NS(=O)(=O)c2ccc3cc(OC4CCCC4)ccc3c2)C(F)(F)c2ccc(-c3ccc(Cl)cc3)cc2)CC1` [Compound 174-2, (S)-1-(3-(4′-chloro-[1,1′-biphenyl]-4-yl)-2-((6-(cyclopentyloxy)naphthalene)-2-sulfonamido)-3,3-difluoropropanoyl)-N′-hydroxypiperidine-4-carboximidamide], for which the IC50 was 30 to 100 µM. The figure for `NC1CCN(C(=O)[C@@H](NC(=O)C(=O)c2cc3ccc(OC4CCCC4)cc3s2)C(F)(F)c2ccc(-c3ccc(Cl)cc3)cc2)CC1` [Compound 175-1, (R)—N-(3-(4-aminopiperidin-1-yl)-1-(4′-chloro-[1,1′-biphenyl]-4-yl)-1,1-difluoro-3-oxopropan-2-yl)-2-(6-(cyclopentyloxy)benzo[b]thiophen-2-yl)-2-oxoacetamide trifluoroacetate] is 10 to 30 µM; for `NC1CCN(C(=O)[C@H](NC(=O)C(=O)c2cc3ccc(OC4CCCC4)cc3s2)C(F)(F)c2ccc(-c3ccc(Cl)cc3)cc2)CC1` [Compound 175-2, (S)—N-(3-(4-aminopiperidin-1-yl)-1-(4′-chloro-[1,1′-biphenyl]-4-yl)-1,1-difluoro-3-oxopropan-2-yl)-2-(6-(cyclopentyloxy)benzo[b]thiophen-2-yl)-2-oxoacetamide trifluoroacetate] it is 30 to 100 µM. Compound `O=C([C@@H](NS(=O)(=O)c1ccc2cc(OC3CCCC3)ccc2c1)C(F)(F)c1ccc(-c2ccc(Cl)cc2)cc1)N1Cc2cn[nH]c2C1` [Compound 176-1, (R)—N-(1-(4′-chloro-[1,1′-biphenyl]-4-yl)-3-(4,6-dihydropyrrolo[3,4-c]pyrazol-5(1H)-yl)-1,1-difluoro-3-oxopropan-2-yl)-6-(cyclopentyloxy)naphthalene-2-sulfonamide] gave an IC50 of under 1 µM. The figure for `O=C([C@H](NS(=O)(=O)c1ccc2cc(OC3CCCC3)ccc2c1)C(F)(F)c1ccc(-c2ccc(Cl)cc2)cc1)N1Cc2cn[nH]c2C1` [Compound 176-2, (S)—N-(1-(4′-chloro-[1,1′-biphenyl]-4-yl)-3-(4,6-dihydropyrrolo[3,4-c]pyrazol-5(1H)-yl)-1,1-difluoro-3-oxopropan-2-yl)-6-(cyclopentyloxy)naphthalene-2-sulfonamide] is 30 to 100 µM; for `NC1CC2CCC(C1)N2C(=O)[C@@H](NS(=O)(=O)c1ccc2cc(OC3CC3)ccc2c1)C(F)(F)c1ccc(Br)cc1` (stereo partly drawn) [Compound 177-1, N-((2R)-3-(3-amino-8-azabicyclo[3.2.1]octan-8-yl)-1-(4-bromophenyl)-1,1-difluoro-3-oxopropan-2-yl)-6-cyclopropoxynaphthalene-2-sulfonamide trifluoroacetate] it is 1 to 10 µM; for `NC1CC2CCC(C1)N2C(=O)[C@H](NS(=O)(=O)c1ccc2cc(OC3CC3)ccc2c1)C(F)(F)c1ccc(Br)cc1` (stereo partly drawn) [Compound 177-2, N-((2S)-3-(3-amino-8-azabicyclo[3.2.1]octan-8-yl)-1-(4-bromophenyl)-1,1-difluoro-3-oxopropan-2-yl)-6-cyclopropoxynaphthalene-2-sulfonamide trifluoroacetate] it is 10 to 30 µM.

On to `N[C@H]1CCN(C(=O)[C@@H](NS(=O)(=O)c2ccc3cc(OC4CCCC4)ccc3c2)C(F)(F)c2ccc(-c3ccc(Cl)cc3)cc2)C[C@@H]1F` [Compound 178-1, N—((R)-3-((3 S,4S)-4-amino-3-fluoropiperidin-1-yl)-1-(4′-chloro-[1,1′-biphenyl]-4-yl)-1,1-difluoro-3-oxopropan-2-yl)-6-(cyclopentyloxy)naphthalene-2-sulfonamide], for which the IC50 lay in the range of 1 to 10 µM. The figure for `N[C@H]1CCN(C(=O)[C@H](NS(=O)(=O)c2ccc3cc(OC4CCCC4)ccc3c2)C(F)(F)c2ccc(-c3ccc(Cl)cc3)cc2)C[C@@H]1F` [Compound 178-2, N—((S)-3-((3 S,4S)-4-amino-3-fluoropiperidin-1-yl)-1-(4′-chloro-[1,1′-biphenyl]-4-yl)-1,1-difluoro-3-oxopropan-2-yl)-6-(cyclopentyloxy) naphthalene-2-sulfonamide] is 1 to 10 µM.
